Source: patent US20250263496A1, “Neutrophil-Activating Therapy for the Treatment of Cancer” (The Board of Trustees of the Leland Stanford Junior …, priority 2024, published 2025)

Columns and labels:
Format in all cases: in vivo, mouse
Conditions in all cases: agent given prior to neutrophil-activating therapy
[1] = system: B16 tumors; test: TUNEL staining of cell death in B16 tumors
Description: Tumors were dissected away from surrounding fat, fixed in 2% paraformaldehyde for 2 hours at 4° C., equilibrated in a 30% sucrose solution at 4° C., and embedded and frozen in O.C.T. Compound (Tissue-Tek). Slides were cut to […] and blocked with 1% BSA and 10% serum matched to the secondary antibody species. The following antibodies were used for immunofluorescence: PE anti-Ly6G (clone 1A8, BioLegend), DyLight 650 anti-gp75 (clone TA99, Bio X Cell, labeled using DyLight 650 NHS Ester (Thermo Scientific)), fluorescein anti-gp75 (clone TA99, Bio X Cell, labeled using NHS-Fluorescein (Thermo Scientific)), FITC anti-DNA/RNA damage (clone 15A3, recognizing 8-hydroxy-2′-deoxyguanosine/8-oxo-7,8-dihydroguanine/8-oxo-7,8-dihydroguanosine, Abcam), and AF647 anti-C3 (clone 11H9, Novus Biologicals). DAPI (Invitrogen) was stained at 1 μg/ml. FITC/fluorescein signal was amplified using AF488 anti-FITC (ThermoFisher Scientific), and PE was amplified using biotin anti-PE (clone PE001, BioLegend) followed by DyLight 594 streptavidin (BioLegend) or DyLight 649 streptavidin (BioLegend). Prior to use of biotinylated antibodies, endogenous biotin was blocked using the Avidin/Biotin Blocking Kit (Vector Laboratories). Prior to DNA/RNA damage staining, sections were permeabilized with 0.1% Triton X-100 in 0.1% sodium citrate. TUNEL (Terminal deoxynucleotidyl transferase dUTP nick end labeling) staining was performed using the In Situ Cell Death Detection Kit, TMR Red (Roche) according to the manufacturer's instructions. […] All parameters that were quantified were acquired with identical microscope settings and adjusted identically in Photoshop, and all adjustments were applied equally across the entire tumor. Quantification was performed in ImageJ, using the wand tool on the overlaid multichannel image to draw a border around the tumor and then measuring the percent area within that border with signal for the channel of the marker quantified.

[2] = system: B16 tumors; test: Oxidative damage in B16 tumors (DNA/RNA oxidation, oxidized glutathione)
Description: Tumors were dissected away from surrounding fat, fixed in 2% paraformaldehyde for 2 hours at 4° C., equilibrated in a 30% sucrose solution at 4° C., and embedded and frozen in O.C.T. Compound (Tissue-Tek). Slides were cut to […] and blocked with 1% BSA and 10% serum matched to the secondary antibody species. […] All parameters that were quantified were acquired with identical microscope settings and adjusted identically in Photoshop, and all adjustments were applied equally across the entire tumor. Quantification was performed in ImageJ, using the wand tool on the overlaid multichannel image to draw a border around the tumor and then measuring the percent area within that border with signal for the channel of the marker quantified.
Determination of oxidized glutathione content. […] The percentage of oxidized glutathione was calculated from the reduced glutathione and total glutathione values determined by the kit.

[3] = system: neutrophils; test: Flow cytometry of neutrophils in B16 tumors and blood
Description: Tumors were digested with collagenase IV and DNase I as described above. Following digestion, tissue was mashed through a […] cell strainer (Falcon), washed, red blood cells were lysed with ACK buffer for 1 minute, and cells were washed again prior to antibody staining. Blood was harvested into PBS plus 20 mM EDTA by cardiac puncture or retro-orbital bleed, lysed in ACK buffer for 5 minutes, and washed prior to antibody staining. Bone marrow was harvested by grinding the femur and tibia in a mortar and pestle and mashing through a […] strainer (Falcon), or by flushing femurs with a syringe and needle, then lysed in ACK buffer for 5 minutes and washed prior to antibody staining. Spleens were harvested by mashing through a […] cell strainer (Falcon), then lysed in ACK buffer for 5 minutes and washed prior to antibody staining.
Live cells were stained with antibodies on ice for 20 minutes in FACS buffer (HBSS 1% BSA 5 mM EDTA) with Brilliant Stain Buffer Plus (BD). Following staining, cells were washed twice in FACS buffer and resuspended in 1 μg/ml DAPI plus AccuCount Fluorescent Particles (Spherotech) for absolute count determination. In some experiments, live cells were stained with Live/Dead Fixable Blue Stain (Invitrogen) in HBSS on ice for 20 minutes prior to antibody staining, and DAPI was not used. […]

**Q.** Which results are given for `N#Cc1cc(-c2n[nH]c(-c3ccncc3)n2)ccn1` [topiroxostat]?
**A.** effect of agent on treatment-induced tumor cell death [1]: reduced cell death; effect of agent on oxidation in tumors [2]: prevented oxidation in tumors; effect of agent on treatment-induced neutrophil tumor infiltration [3]: did not prevent neutrophil infiltration
